Publication PMC8191290, “Substrate specificities and reaction kinetics of the yeast oligosaccharyltransferase isoforms” (The Journal of Biological Chemistry, 2021)

Molecular target: T1, OST3 complex (Saccharomyces cerevisiae, UniProt P39007)
T1 construct: were purified separately from strains expressing only one type of complex; made in house; host or cells: Saccharomyces cerevisiae, BY4742-derived strain ost6::LEU2MX6 OST4-1D4::kanMX6 YEp352-OST3
Assay: Synthetic LLO preferences, OST3 complex
Format: biochemical
Conditions: OST3 complex 0.09 μM, 25 μM TAMRA-YANATS, 50 μM LLO; n = 3
Protocol: Figure 5 OST3 complex turns over both glycosylation substrates faster than the OST6 complex, but with similar substrate affinities.A, enzyme activity of OST3 and OST6 complexes. Reactions were performed with 25 μM peptide TAMRA-YANATS, 50 μM LLO C20, and varying concentrations of purified OST3 complex (blue) or OST6 complex (red). Glycopeptide product was measured by UPLC and initial rates of reaction were determined by linear regression of the initial phase of the reaction. Turnover rates were determined by linear regression of the initial rates of reaction measured across the enzyme concentrations of 0.01–0.1 μM for OST3 complex and 0.1–0.5 μM for OST6 complex. Error bars indicate standard deviations from the mean of three reaction sets (n = 3). B, synthetic LLO preferences of OST3 and OST6 complexes. […] Turnover rates were determined by linear regression of the initial phase of the reaction and accounting for the enzyme concentration in the reaction. […] C, quantification of kinetic parameters for the synthetic LLO C20. […] Turnover rates were determined by linear regression of the initial phase of the reaction and accounting for the enzyme concentration in the reaction. […] D, quantification of kinetic parameters for the peptide TAMRA-YANATS. […] Turnover rates were determined by linear regression of the initial phase of the reaction and accounting for the enzyme concentration in the reaction. […]

## CC(=O)N[C@H]1[C@@H](OP(=O)(O)OP(=O)(O)OC/C=C(\C)CC/C=C(\C)CCC=C(C)C)O[C@H](CO)[C@@H](O[C@@H]2O[C@H](CO)[C@@H](O)[C@H](O)[C@H]2NC(C)=O)[C@@H]1O [LLO C15]
  turnover rate ranking among LLO analogs: lowest reaction rates
